ChEMBL document CHEMBL1143450, “Potential metabolites of a condensed 2,3-benzodiazepine derivative” (Bioorg Med Chem Lett, 2005)
Values belong to the compound of their own block, whether it stands above or below them.

Tests used:
Mus musculus [1] = test: Effective p.o. dose tested for anticonvulsant activity using maximal electroshock seizure model in mouse (SMA); settings: po
Gallus gallus [2] = species: Gallus gallus; test: Evaluated for inhibition of AMPA (5 uM) evoked spreading depression in isolated retina prepared from young chicken; format: functional
Mus musculus [3] = test: Effective p.o. dose tested for anticonvulsant activity using maximal electroshock seizure model in mouse (high test concentration); settings: po
Mus musculus [4] = test: Effective i.p. dose tested for muscle relaxant activity using inclined screen test in mouse (highest test concentration); settings: ip
Mus musculus [5] = test: Effective p.o. dose tested for anticonvulsant activity using maximal electroshock seizure model in mouse (value range= 17.9-32.1 mg/kg); settings: po
Mus musculus [6] = test: Effective i.p. dose tested for muscle relaxant activity using inclined screen test in mouse (value range= 29.4-45.2 mg/kg); settings: ip
Mus musculus [7] = test: Effective p.o. dose tested for anticonvulsant activity using maximal electroshock seizure model in mouse; settings: po
Mus musculus [8] = test: Effective i.p. dose tested for muscle relaxant activity using inclined screen test in mouse (value range= 11.2-16.0 mg/kg); settings: ip
Gallus gallus [9] = species: Gallus gallus; test: Evaluated for inhibition of AMPA (5 uM) evoked spreading depression in isolated retina prepared from young chicken at 20 uM; format: functional
Mus musculus [10] = test: Effective p.o. dose tested for anticonvulsant activity using maximal electroshock seizure model in mouse (highest test concentration); settings: po
Mus musculus [11] = test: Effective p.o. dose tested for anticonvulsant activity using maximal electroshock seizure model in mouse (value range=25-50 mg/kg); settings: po
Mus musculus [12] = test: Effective i.p. dose tested for muscle relaxant activity using inclined screen test in mouse (value range=100-200 mg/kg); settings: ip
Mus musculus [13] = test: Effective p.o. dose tested for anticonvulsant activity using maximal electroshock seizure model in mouse (highest test concentration); settings: po; remark: listed apart in the source

SMILES: CC(=O)Nc1ccc(C2=Nn3cc(CO)nc3Cc3ccc(Cl)cc32)cc1
ED50 (Mus musculus [1]): > 100 mg/kg

SMILES: CC(=O)N1N=C(c2ccc(N)cc2)c2cc3c(cc2C[C@H]1C)OCO3 [TALAMPANEL]
ED50 (Mus musculus [8]): 13.4 mg/kg

SMILES: CC(=O)Nc1ccc(C2=Nn3cc(C(=O)O)nc3Cc3ccc(Cl)cc32)cc1
Inhibition (Gallus gallus [9]): 33%
ED50 (Mus musculus [10]): > 100 mg/kg
ED50 (Mus musculus [4]): > 200 mg/kg

SMILES: Nc1ccc(C2=Nn3cc(C(=O)O)nc3Cc3ccc(Cl)cc32)cc1
Inhibition (Gallus gallus [9]): 55%
ED50 (Mus musculus [13]): > 100 mg/kg
ED50 (Mus musculus [4]): > 200 mg/kg

Now from value to compound, other results behind:

IC50 (Gallus gallus [2]): 20 µM
SMILES: CCOC(=O)c1cn2c(n1)Cc1ccc(Cl)cc1C(c1ccc(N)cc1)=N2
ED50 (Mus musculus [3]): > 100 mg/kg
ED50 (Mus musculus [4]): > 200 mg/kg

IC50 (Gallus gallus [2]): 7.3 µM
SMILES: Cc1cn2c(n1)Cc1ccc(Cl)cc1C(c1ccc(N)cc1)=N2
ED50 (Mus musculus [5]): 24 mg/kg
ED50 (Mus musculus [6]): 36.5 mg/kg

IC50 (Gallus gallus [2]): > 20 µM
SMILES: CC(=O)Nc1ccc(C2=Nn3cc(C)nc3Cc3ccc(Cl)cc32)cc1
ED50 (Mus musculus [7]): 56 mg/kg
ED50 (Mus musculus [4]): > 200 mg/kg

IC50 (Gallus gallus [2]): 5 µM
SMILES: Nc1ccc(C2=Nn3cc(CO)nc3Cc3ccc(Cl)cc32)cc1
ED50 (Mus musculus [11]): 50 mg/kg
ED50 (Mus musculus [12]): 200 mg/kg
